Measured values: US10300058B2, “Tyrosine kinase inhibitor and uses thereof” (Xuanzhu Pharma Co., Ltd., priority 2014, dated 2019)

What was measured:
wild-type EGFR (WT EGFR) = wild-type EGFR (WT EGFR) (Homo sapiens (Human), UniProt P00533); test: Mobility Shift Assay, in vitro enzyme-inhibiting activity, wild-type EGFR; type: biochemical; conditions: Km ATP
Method: (§1) 1. Preparation of Reagents
(§2) 2. Preparation of a Compound Solution
(§3) (1) To the second well of a 96-well plate, 5 μL 10 mM compound (dissolved in DMSO) was added, and 95 μL 100% DMSO was added to prepare 100 μL 0.5 mM compound.
(§4) (2) To other wells, 60 μL 100% DMSO was added. 20 μL compound from the second well was added to the third well, and 4-fold dilution was further performed to get 10 diluted concentrations.
(§5) (3) To the first well and the twelfth well of the 96-well plate, 100 μL 100% DMSO was separately added, and the two wells were used as control wells.
(§6) (4) 10 μL from each well of the 96-well plate was added to another 96-well plate, and 90 μL 1-fold kinase buffer was added.
(§7) (5) 5 μL from the 96-well plate was added to another 384-well plate, for example, transferred from A1 well of the 96-well plate to A1 and A2 wells of the 384-well plate, and transferred from A2 well of the 96-well plate to A3 and A4 wells of the 384-well plate, and so on.
(§8) To 384-well plate, 10 μL 2.5-fold enzyme solution was added, and incubated at room temperature for 10 min.
(§9) (5) Kinase reaction and stop
(§10) After incubation at 28° C. for a period of time (depending on kinase), 25 μL stop solution was added.
(§11) 4. Data on percent conversion was read by Caliper.
(§12) (1) Data on enzyme activity was obtained by Caliper program;
(§13) (2) Inhibition rate of enzyme activity was calculated from the data on enzyme activity by the following formula: Inhibition rate(%)=(maximal value−the measured value of a test compound)/(maximal value-minimal value)×100,
(§14) wherein, the maximal value represents the measured value of DMSO control; and the minimal value represents the measured value of blank control.
(§15) (3) Calculation of IC50 value by XLFit excel.

EGFR T790M = EGFR T790M (Homo sapiens (Human), UniProt P00533, T790M); test: Mobility Shift Assay, in vitro enzyme-inhibiting activity, EGFR T790M; type: biochemical; conditions: for IC50: Km ATP; for Selectivity (WT/T790M): ratio of IC50
Chain of EGFR T790M (P00533 25-1210 T790M): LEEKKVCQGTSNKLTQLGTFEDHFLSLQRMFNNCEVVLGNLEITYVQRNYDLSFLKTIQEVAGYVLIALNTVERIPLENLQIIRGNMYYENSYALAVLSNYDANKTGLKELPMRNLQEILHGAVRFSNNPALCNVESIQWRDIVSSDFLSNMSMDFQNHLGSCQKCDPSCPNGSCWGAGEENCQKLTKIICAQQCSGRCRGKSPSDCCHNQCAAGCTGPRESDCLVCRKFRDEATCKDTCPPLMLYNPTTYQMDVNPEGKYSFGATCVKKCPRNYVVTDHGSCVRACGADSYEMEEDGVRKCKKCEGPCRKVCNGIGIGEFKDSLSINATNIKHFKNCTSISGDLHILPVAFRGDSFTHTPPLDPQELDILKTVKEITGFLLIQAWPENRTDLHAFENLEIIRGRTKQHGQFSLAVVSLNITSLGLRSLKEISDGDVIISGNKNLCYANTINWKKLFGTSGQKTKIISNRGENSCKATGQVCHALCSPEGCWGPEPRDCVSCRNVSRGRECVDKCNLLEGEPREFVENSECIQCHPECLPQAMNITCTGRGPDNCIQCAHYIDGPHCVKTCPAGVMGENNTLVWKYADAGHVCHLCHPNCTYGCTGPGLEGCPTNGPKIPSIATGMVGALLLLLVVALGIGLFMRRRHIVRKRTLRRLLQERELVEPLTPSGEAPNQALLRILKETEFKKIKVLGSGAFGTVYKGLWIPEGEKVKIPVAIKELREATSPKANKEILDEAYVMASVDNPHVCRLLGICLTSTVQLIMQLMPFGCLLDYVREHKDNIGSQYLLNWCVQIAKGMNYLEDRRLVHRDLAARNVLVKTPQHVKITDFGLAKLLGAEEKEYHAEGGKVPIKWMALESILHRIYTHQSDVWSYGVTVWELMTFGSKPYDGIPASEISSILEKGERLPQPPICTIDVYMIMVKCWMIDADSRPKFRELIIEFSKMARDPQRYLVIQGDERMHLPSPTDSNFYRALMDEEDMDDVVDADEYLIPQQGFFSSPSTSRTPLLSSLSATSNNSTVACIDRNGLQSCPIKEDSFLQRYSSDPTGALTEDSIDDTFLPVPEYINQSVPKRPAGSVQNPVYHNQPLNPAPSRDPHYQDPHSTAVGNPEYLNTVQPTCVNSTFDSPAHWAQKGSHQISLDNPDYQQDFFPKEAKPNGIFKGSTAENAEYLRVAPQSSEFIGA
Method: as §1, §2, §3, §4, §5, §6, §7, §8, §9, §10, §11, §12, §13, §14, §15

EGFR L858R = EGFR L858R (Homo sapiens (Human), UniProt P00533, L858R); test: Mobility Shift Assay, in vitro enzyme-inhibiting activity, EGFR L858R; type: biochemical; conditions: for IC50: Km ATP; for Selectivity WT/L858R: ratio of IC50
Chain of EGFR L858R (P00533 25-1210 L858R): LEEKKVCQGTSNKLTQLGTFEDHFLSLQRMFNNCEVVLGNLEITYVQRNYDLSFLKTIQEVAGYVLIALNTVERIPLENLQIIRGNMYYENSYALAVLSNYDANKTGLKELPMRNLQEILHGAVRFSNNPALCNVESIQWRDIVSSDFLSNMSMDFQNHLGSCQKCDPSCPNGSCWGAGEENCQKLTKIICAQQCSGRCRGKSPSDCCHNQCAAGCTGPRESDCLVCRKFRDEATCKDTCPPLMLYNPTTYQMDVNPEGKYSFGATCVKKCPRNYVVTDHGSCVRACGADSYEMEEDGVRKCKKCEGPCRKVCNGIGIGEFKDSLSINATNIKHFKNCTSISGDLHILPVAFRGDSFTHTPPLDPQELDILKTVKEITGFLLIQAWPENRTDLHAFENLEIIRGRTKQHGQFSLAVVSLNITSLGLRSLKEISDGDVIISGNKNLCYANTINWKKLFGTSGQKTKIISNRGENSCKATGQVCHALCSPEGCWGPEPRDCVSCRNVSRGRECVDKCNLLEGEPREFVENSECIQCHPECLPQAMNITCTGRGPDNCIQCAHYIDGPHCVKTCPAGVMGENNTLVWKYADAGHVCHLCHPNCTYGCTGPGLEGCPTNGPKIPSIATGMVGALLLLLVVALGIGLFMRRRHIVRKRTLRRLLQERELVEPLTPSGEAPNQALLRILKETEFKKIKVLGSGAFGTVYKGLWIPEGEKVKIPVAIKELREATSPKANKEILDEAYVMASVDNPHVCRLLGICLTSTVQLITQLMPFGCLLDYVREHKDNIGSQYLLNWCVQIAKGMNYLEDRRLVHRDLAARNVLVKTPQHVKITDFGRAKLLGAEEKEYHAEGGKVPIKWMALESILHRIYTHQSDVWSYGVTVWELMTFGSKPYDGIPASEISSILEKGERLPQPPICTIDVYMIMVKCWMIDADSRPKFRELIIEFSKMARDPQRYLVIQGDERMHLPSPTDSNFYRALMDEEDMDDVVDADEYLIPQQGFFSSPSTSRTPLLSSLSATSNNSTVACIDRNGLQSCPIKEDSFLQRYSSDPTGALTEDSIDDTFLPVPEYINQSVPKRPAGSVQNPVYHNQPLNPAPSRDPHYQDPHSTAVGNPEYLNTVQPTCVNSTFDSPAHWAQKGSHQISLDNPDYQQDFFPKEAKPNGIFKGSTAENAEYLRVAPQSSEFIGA
Method: as §1, §2, §3, §4, §5, §6, §7, §8, §9, §10, §11, §12, §13, §14, §15

EGFR (d746-750) = EGFR (d746-750) (Homo sapiens (Human), UniProt P00533, DEL746-750); test: Mobility Shift Assay, in vitro enzyme-inhibiting activity, EGFR (d746-750); type: biochemical; conditions: for IC50: Km ATP; for Selectivity WT/d746-750: ratio of IC50
Chain of EGFR (d746-750) (P00533 other isoform, or with tags, fused parts or gaps del 1-668/del 746-750 limits assumed): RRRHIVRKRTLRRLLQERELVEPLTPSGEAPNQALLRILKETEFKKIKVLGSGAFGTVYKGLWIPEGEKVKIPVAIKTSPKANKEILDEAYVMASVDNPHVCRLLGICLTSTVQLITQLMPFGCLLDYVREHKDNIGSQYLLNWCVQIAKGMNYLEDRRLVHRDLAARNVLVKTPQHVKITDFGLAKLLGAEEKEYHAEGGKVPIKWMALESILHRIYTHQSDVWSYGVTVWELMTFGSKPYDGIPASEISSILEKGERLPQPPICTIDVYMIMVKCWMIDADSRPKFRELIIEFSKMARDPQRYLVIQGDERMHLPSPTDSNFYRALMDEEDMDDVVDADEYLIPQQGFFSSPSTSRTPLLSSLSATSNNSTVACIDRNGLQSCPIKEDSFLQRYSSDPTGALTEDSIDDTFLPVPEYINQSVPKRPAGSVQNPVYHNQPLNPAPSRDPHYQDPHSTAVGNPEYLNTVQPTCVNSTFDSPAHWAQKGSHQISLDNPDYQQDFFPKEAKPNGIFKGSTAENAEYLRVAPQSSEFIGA
Method: as §1, §2, §3, §4, §5, §6, §7, §8, §9, §10, §11, §12, §13, §14, §15

[1] = tested on: A431 cell (wild-type EGFR gene); test: In vitro cytologic activity, Celltiter-Glo, A431 cells; type: cell-based; conditions: Homo sapiens, A-431, 72 h
Method: 1.1 Preparation of Cell Suspension
Culture medium was removed from culture bottle;
PBS was added to wash the cells; • pancreatin was added for digestion, and the cells were collected by centrifugation; • the cells were resuspended in a culture medium containing 10% fetal bovine serum, counted and adjusted to a concentration of 2×10^4/mL or 3×10^4/mL (cell viability must be greater than 90%); • the cell suspension was added to a 96-well plate, at 100 μL for each well, i.e., 2000/well for H1975 cell; 3000/well for A431 cell; and • the cells were cultured at 37° C. in 5% CO2 incubator overnight.
Dilution of a compound in DMSO (or water for injection) • (1) The compound was 5-fold diluted with DMSO from 10 mM to 2 mM, and then 4-fold diluted from 2 mM, to get 10 concentrations; • High control (HC, control without compound inhibition): 0.5% DMSO; • Low control (LC, control with compound inhibition): 1000 nM.
i. To each well, 99 μL growth medium containing 10% FBS was added, and then 1 μL diluted compound was added, the total volume of the well was […], and the final concentration of the compound was measured.
The test plate was left at room temperature, and equilibrated for 30 min. 80 μL culture medium was discarded. 60 μL CTG reagent (Celltiter-Glo kit) was added, and shaked for 2 min in a fast shaker, and was placed at room temperature for 10 min. The values were read by Envision instrument.

Pharmacokinetics in rat = type: in vivo; conditions: male, plasma, SD rat; for bioavailability: read-out: F (absolute bioavailability)
Method: Test animal: male SD rat, 3 rats, weight: 200-250 g/rat
Blank solvent for intragastric administration (po) of Compound 2, 27: 0.1% Tween 80+2% HPC (hydroxypropyl cellulose),
Preparation: HPC (hydroxypropyl cellulose) (20 g) was weighed, and slowly added to purified water (1000 mL) under stirring, and Tween 80 (1 mL) was added. The mixture was stirred until it became clear, to get a blank solvent of 0.1% Tween 80+2% HPC. Compound 2 (3.21 mg) and Compound 27 (3.03 mg) were weighed, respectively, solvent was added, and the resultant mixture was placed in a tissue grinder, and ground at a speed of 1000 r/min. After homogeneous dispersion, a solution for intragastric administration at a theoretical concentration of 0.5 mg/mL was obtained. […] After homogeneous dispersion, a solution for intragastric administration at a theoretical concentration of 1.0 mg/mL was obtained.
A blank solvent for intravenous injection (iv) for Compound 2, 27, 31: 5% DMSO+10% PEG400+85% (28% HP-β-CD)
Compound 2 (2.98 mg), Compound 27 (2.98 mg), and Compound 31 (3.27 mg) were weighed, respectively, and blank solvent for intravenous injection was added. The resultant mixture was mixed homogeneously under vortexing, placed in a 50° C. constant temperature water bath for 20 min, and filtrated through a 0.22 μm filter membrane to get a clear and transparent solution for intravenous injection at a theoretical concentration of 0.5 mg/mL.
Formulation of Compound 31 for intravenous injection (iv): 20% DMF+20% PEG400+60% sterile water for injection
Compound 31 (3.10 mg) was weighed, and dissolved in 1.262 mL DMF (N,N-dimethylformamide) ultrasonically. 1.262 mL PEG400 was added, and the resultant mixture was mixed homogeneously under vortexing. 3.786 mL sterile water for injection was added. The mixture was vertexed homogeneously to get a clear and transparent solution for intravenous injection at a theoretical concentration of 0.5 mg/ml.
po: 0.167 h, 0.5 h, 1 h, 2 h, 4 h, 6 h, 8 h, 24 h after administration.
About 100 μL whole blood was collected from caudal vein at each time point, added to an anticoagulation tube containing K2EDTA, and centrifuged at 8000 r/min for 6 min in a low-temperature centrifuge to separate the plasma; the plasma was stored in a refrigerator at −80° C.
The plasma samples of Compound 2, 27, and 31 were analyzed by means of protein precipitation: to 30 μL plasma, 200 μL internal standard (acetonitrile solution containing 50 ng/mL CNX-2006, the structure of which is
[drawing 56] prepared by reference to the method in Patent WO2012064706A1) was added; the resultant mixture was vortexted for 10 min at 1000 r/min, and centrifuged for 20 min at 4000 r/min; to 100 μL supernatant, 100 μL water was added; the resultant mixture was mixed homogeneously under vortexing and analyzed by LC-MS/MS.

Chain of wild-type EGFR (WT EGFR) (P00533 25-1210): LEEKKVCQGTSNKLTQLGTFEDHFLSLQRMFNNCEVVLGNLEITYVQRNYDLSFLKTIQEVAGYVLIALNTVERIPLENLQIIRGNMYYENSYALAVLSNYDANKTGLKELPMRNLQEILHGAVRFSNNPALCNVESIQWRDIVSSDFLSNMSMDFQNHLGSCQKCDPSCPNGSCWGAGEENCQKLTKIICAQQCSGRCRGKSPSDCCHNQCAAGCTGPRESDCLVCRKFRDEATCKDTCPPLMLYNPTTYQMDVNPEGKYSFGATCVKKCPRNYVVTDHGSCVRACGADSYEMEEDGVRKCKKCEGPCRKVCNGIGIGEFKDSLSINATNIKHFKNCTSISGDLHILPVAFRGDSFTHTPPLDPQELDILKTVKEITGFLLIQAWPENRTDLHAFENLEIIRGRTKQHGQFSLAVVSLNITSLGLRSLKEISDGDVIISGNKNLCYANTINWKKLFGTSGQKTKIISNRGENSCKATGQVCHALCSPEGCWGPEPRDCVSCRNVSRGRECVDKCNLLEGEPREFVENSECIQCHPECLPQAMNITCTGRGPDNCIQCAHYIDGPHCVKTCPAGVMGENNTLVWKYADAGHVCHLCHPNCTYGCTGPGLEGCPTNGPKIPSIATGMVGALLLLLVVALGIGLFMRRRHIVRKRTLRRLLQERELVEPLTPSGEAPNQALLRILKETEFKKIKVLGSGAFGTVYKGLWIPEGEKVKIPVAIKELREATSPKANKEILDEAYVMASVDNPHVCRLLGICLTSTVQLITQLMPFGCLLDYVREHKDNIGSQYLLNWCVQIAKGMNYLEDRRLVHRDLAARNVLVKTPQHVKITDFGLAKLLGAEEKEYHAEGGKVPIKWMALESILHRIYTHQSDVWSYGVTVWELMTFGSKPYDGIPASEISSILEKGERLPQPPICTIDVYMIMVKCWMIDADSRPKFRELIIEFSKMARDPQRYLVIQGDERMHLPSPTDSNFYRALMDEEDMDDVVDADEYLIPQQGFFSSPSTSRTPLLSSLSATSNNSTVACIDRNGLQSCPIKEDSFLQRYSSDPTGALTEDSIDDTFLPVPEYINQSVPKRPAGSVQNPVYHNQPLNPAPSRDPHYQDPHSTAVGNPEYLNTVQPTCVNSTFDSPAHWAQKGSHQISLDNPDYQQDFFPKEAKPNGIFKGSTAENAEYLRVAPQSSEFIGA

| SMILES | AUC(0-t) (Pharmacokinetics in rat; iv, 1 mg/kg) | clearance (Pharmacokinetics in rat; iv, 1 mg/kg) | AUC(0-t) (Pharmacokinetics in rat; po, 2 mg/kg) | bioavailability (Pharmacokinetics in rat; po, 2 mg/kg) | IC50 (wild-type EGFR (WT EGFR); Table 4, unit inferred) | IC50 (EGFR T790M; Table 4, unit inferred) | Selectivity (WT/T790M) (EGFR T790M; Table 4) | IC50 (EGFR L858R; Table 8) | IC50 (EGFR (d746-750); Table 8) | IC50 ([1]; Table 10, unit inferred) | other results |
| --- | --- | --- | --- | --- | --- | --- | --- | --- | --- | --- | --- |
| C=CC(=O)Nc1cccc(Nc2nc(Nc3ccc(C4CCN(C(C)=O)CC4)cc3OC)ncc2C(F)(F)F)c1 [Compound 2, N-(3-((2-((4-(1-acetylpiperidin-4-yl)-2-methoxyphenyl)amino)-5-(trifluoromethyl)pyrimidin-4-yl)amino)phenyl)acrylamide] | 723 ng·h/mL | 26 mL/min/kg | 267 ng·h/mL | 19% | – | – | – | – | – | – | IC50 (wild-type EGFR (WT EGFR); Table 1): 552 nM; IC50 (wild-type EGFR (WT EGFR); Table 5): 344 nM; IC50 (EGFR T790M; Table 1): 6.2 nM; Selectivity (WT/T790M) (EGFR T790M; Table 1): 89.0; IC50 (EGFR L858R; Table 5): 91.8 nM; Selectivity WT/L858R (EGFR L858R; Table 5): 3.7; IC50 (EGFR (d746-750); Table 5): 24.2 nM; Selectivity WT/d746-750 (EGFR (d746-750); Table 5): 14.2; IC50 ([1]; Table 9): 1850 nM |
| C=CC(=O)Nc1cccc(Nc2nc(Nc3ccc(C4CCN(S(C)(=O)=O)CC4)cc3OC)ncc2C(F)(F)F)c1 [Compound 27, N-(3-((2-((2-methoxy-4-(1-(methylsulfonyl)piperidin-4-yl)phenyl)amino)-5-(trifluoromethyl)pyrimidin-4-yl)amino)phenyl)acrylamide] | 774 ng·h/mL | 22.7 mL/min/kg | 754 ng·h/mL | 49% | 871 nM | 9.6 nM | 90.7 | 88 nM | 36 nM | 2790 nM | – |
| C=CC(=O)Nc1cccc(Nc2nc(Nc3ccc(N4CCC(N5CCOCC5)CC4)cc3OC)ncc2C(F)(F)F)c1 [Compound 28, N-(3-((2-((2-methoxy-4-(4-morpholinopiperidin-1-yl)phenyl)amino)-5-(trifluoromethyl)pyrimidin-4-yl)amino)phenyl)acrylamide] | – | – | – | – | 73 nM | 1.2 nM | 60.8 | 11 nM | 5.5 nM | 703 nM | – |
| C=CC(=O)Nc1cccc(Nc2nc(Nc3ccc(N4CC5(CN(C(C)=O)C5)C4)cc3OC)ncc2C(F)(F)F)c1 [Compound 31, N-(3-((2-((4-(6-acetyl-2,6-diazaspiro[3.3]heptan-2-yl)-2-methoxyphenyl)amino)-5-(trifluoromethyl)pyrimidin-4-yl)amino)phenyl)acrylamide] | – | – | – | – | – | – | – | – | – | 2720 nM | IC50 (wild-type EGFR (WT EGFR); Table 7): 210 nM; IC50 (EGFR T790M; Table 7): 3.55 nM; Selectivity (WT/T790M) (EGFR T790M; Table 7): 59.2; IC50 (EGFR L858R; Table 7): 39.3 nM; Selectivity WT/L858R (EGFR L858R; Table 7): 5.4; IC50 (EGFR (d746-750); Table 7): 28.6 nM; Selectivity WT/d746-750 (EGFR (d746-750); Table 7): 7.4; AUC(0-t) (Pharmacokinetics in rat; iv, 0.74 mg/kg): 1020 ng·h/mL; clearance (Pharmacokinetics in rat; iv, 0.74 mg/kg): 12.2 mL/min/kg |
